# What was measured:
# human cancer cells = conditions: cited from earlier work
# HSA binding site I = target: T1, HSA binding site I (Homo sapiens, UniProt P02768); experiment: Competitive displacement study, HSA binding site I (Wf marker), CZE; conditions: for % Wf bound: Wf:HSA (100 μM) 2:1, n = 3
# T1 construct: purchased Sigma-Aldrich A1653
# Protocol: The final concentration of methanol was 10% in all samples.
# (§1) All measurements were performed in at least triplicate on a CE system G7100 (Agilent, Waldbronn, Germany) equipped with a long-life deuterium lamp (8 pin) with an radio-frequency identification (RFID) tag. A capillary (fused silica, 50 μm ID, Polymicro Technologies) with a total length of 50 cm and an effective length of 40 cm was installed for the separation with ultraviolet (UV) detection. The capillary zone electrophoresis (CZE)–UV data and peak areas presented were recorded at 200 nm, while the internal standard signal was recorded at 254 nm in the samples containing αMEM and human serum, as other neutral species were overlapping the signal at 200 nm. For HSA binding site studies, 210 nm was selected as the evaluation wavelength.
# (§2) For the binding site studies with HSA, a modified version of a CE method was applied.[21] Before each run, the capillary was flushed with BGE (2 min), then +28 kV voltage was applied for 30 s followed by 1 min of flushing with BGE and the capillary was rinsed with HCl (0.1 M; 2 min), H2O (2 min), NaOH (1.0 M, 2 min), and H2O (2 min) after each separation. The sample tray and the capillary were kept at 25°C. Samples were injected hydrodynamically (30 mbar for 5 s) and the voltage applied was +28 kV for 5 min. The current reading was 34 μA.
# [1] = set-up: method as in PMID 31357065; conditions: cited from earlier work
# Tf [2] = target: T2, Tf (Homo sapiens, UniProt P02787); experiment: CZE interaction study with Tf; type: binding
# T2 construct: purchased Sigma-Aldrich
# Protocol: (§3) Stock solutions of HSA and Tf in BGE were prepared (400 μM). Studies were performed for 1 and 2 at complex (200 μM):protein ratios of 1:1, 10:1, and 20:1. The PCA complex 3 was investigated at complex (200 μM):protein ratios of 20:1 and 50:1 for HSA and at 10:1 and 20:1 for Tf. Samples were prepared just before the first measurement. BGE was used for dilution and [Co(acac)3] was added as the internal standard to all samples at a final concentration of 100 μM.
# as §1
# (§4) New capillaries were conditioned with HCl (0.1 M) and H2O followed by NaOH (1.0 M) and H2O for 10 min each followed by flushing with BGE [phosphate buffer (20 mM, pH 7.4)] for 20 min. The same procedure was carried out as daily conditioning. The capillary was flushed with BGE (3 min) before each run and was rinsed with HCl (0.1 M; 30 s), H2O (30 s), NaOH (1.0 M, 2 min), and H2O (2 min) after each separation. The sample tray and the capillary were kept at 25°C. Samples were injected hydrodynamically (50 mbar for 5 s) and the voltage applied was +20 kV for 5 min. The current reading was 23–24 μA.
# HSA = target: T3, HSA (Homo sapiens, UniProt P02768); experiment: CZE interaction study with HSA; type: binding
# T3 construct: purchased Sigma-Aldrich A3782
# Protocol: as §3, §1, §4
# Tf [3] = target: T2, Tf; experiment: FT-ICR-MS adduct formation with Tf; type: binding; conditions: complex:Tf 5:1 in water
# Protocol: The adduct formation between complex 1 and Tf was further studied using a Bruker Solarix XR 7 T FT–ICR–MS. A mixture of 1 and Tf in ratio 5:1 in H2O (18 MΩ, Millipore) was incubated for 24 h. A sample was collected after 0 and 24 h, and the samples were frozen until analysis. The samples were diluted 1:100 with 0.1% formic acid in H2O (18 MΩ, Millipore) prior to analysis, producing a final concentration of 2 μM for complex 1 and 0.4 μM for Tf. A separate standard of Tf at 0.4 μM was also prepared and analyzed.
# [4] = CZE stability study in H2O and 20 mM phosphate buffer (pH 7.4); type: physicochemical; conditions: 200 μM; for Stability in water (peak areas of cationic species constant): complex cations of 2 and 3, or initial aquation products of 1 and 3, CZE over 24 h
# Protocol: Stability studies of complexes 1–3 were carried out in both H2O and 20 mM phosphate buffer (pH 7.4). Stock solutions for the complexes were prepared in methanol (2 mM). The samples were diluted just before the first measurement to a final complex concentration of 200 μM. Tris(acetylacetonato)cobalt(III) [Co(acac)3] was added as an internal standard to all samples at a final concentration of 100 μM. The stability was studied for 24 h by monitoring changes in the peak areas over time.
# as §1, §4
# HSA binding site II = target: T4, HSA binding site II (Homo sapiens, UniProt P02768); experiment: Competitive displacement study, HSA binding site II (Ds marker), CZE; conditions: for % Ds bound: Ds:HSA (100 μM) 2:1, n = 3
# T4 construct: purchased Sigma-Aldrich A1653
# Protocol: The affinity of complex 1 for binding sites I and II on HSA was investigated with Wf as the site marker for binding site I and Ds for site II by tracking the peak area for unbound Wf and Ds, respectively. Stock solutions of Wf, Ds, and HSA were prepared in H2O at concentrations of 800, 800, and 200 μM, respectively. Wf or Ds were incubated with HSA (100 μM) at a ratio of 2:1 for at least 1 h at room temperature before complex 1 was added at final concentrations of 200, 400, or 800 μM. The final concentration of methanol was 10% in all samples. Calibration curves for Wf or Ds in the range of 50–300 μM were determined before the start of each displacement study, to allow for accurate quantification of the amounts of Ds or Wf displaced by complex 1.
# as §1, §2
# Aqueous solubility = type: physicochemical
# [5] = CZE interaction study with cell culture medium; type: in vitro ADME; conditions: complex 200 μM, medium diluted 1:10, complex:albumin 133:1
# Protocol: The interactions of complexes 1–3 with cell culture medium (αMEM with 5% FBS) were investigated. The αMEM was diluted 1:10 with BGE and the complex concentrations were kept at 200 μM and [Co(acac)3] at 100 μM. The dilution corresponded to a complex:albumin ratio of 133:1.
# as §1
# (§5) New capillaries were conditioned with HCl (0.1 M) and H2O followed by NaOH (1.0 M) and H2O for 10 min each followed by flushing with BGE [phosphate buffer (20 mM, pH 7.4)] for 20 min. The same procedure was carried out as daily conditioning. […] The current reading was 23–24 μA.
# [6] = CZE interaction study with human serum; type: in vitro ADME; conditions: complex 200 μM, serum diluted 1:100, complex:albumin about 50:1
# Protocol: The interactions of complexes 1–3 with human serum were investigated after diluting the serum 1:100 with BGE and the complex concentrations were kept at 200 μM and for [Co(acac)3] at 100 μM. The dilution corresponded to a complex:protein ratio of about 50:1 with regard to albumin content.
# as §1, §5
# plectin = test system: plectin; set-up: method as in earlier work; conditions: cited from earlier work
# HSA and Tf = test system: HSA and Tf; set-up: method as in PMID 15907879; conditions: cited from earlier work
# T2 sequence (P02787 20-698): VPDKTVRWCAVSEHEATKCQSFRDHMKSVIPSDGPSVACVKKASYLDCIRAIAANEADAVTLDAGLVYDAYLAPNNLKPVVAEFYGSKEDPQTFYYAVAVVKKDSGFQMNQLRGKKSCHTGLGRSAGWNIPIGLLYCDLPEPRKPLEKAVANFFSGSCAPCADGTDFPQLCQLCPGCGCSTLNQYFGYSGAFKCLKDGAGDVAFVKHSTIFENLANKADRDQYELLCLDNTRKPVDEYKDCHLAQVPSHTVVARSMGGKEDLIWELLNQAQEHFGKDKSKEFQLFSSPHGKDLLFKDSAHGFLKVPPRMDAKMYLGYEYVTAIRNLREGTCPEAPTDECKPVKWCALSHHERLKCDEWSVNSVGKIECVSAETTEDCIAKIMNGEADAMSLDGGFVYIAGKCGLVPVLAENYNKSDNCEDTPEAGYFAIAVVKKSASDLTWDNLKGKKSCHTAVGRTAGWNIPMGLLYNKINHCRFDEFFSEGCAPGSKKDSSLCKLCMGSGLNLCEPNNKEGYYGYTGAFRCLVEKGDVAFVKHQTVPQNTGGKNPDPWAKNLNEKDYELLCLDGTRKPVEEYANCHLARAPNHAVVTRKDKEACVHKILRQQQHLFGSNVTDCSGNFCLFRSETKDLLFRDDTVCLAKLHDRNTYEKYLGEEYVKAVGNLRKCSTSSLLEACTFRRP
# T1 sequence (P02768 25-609): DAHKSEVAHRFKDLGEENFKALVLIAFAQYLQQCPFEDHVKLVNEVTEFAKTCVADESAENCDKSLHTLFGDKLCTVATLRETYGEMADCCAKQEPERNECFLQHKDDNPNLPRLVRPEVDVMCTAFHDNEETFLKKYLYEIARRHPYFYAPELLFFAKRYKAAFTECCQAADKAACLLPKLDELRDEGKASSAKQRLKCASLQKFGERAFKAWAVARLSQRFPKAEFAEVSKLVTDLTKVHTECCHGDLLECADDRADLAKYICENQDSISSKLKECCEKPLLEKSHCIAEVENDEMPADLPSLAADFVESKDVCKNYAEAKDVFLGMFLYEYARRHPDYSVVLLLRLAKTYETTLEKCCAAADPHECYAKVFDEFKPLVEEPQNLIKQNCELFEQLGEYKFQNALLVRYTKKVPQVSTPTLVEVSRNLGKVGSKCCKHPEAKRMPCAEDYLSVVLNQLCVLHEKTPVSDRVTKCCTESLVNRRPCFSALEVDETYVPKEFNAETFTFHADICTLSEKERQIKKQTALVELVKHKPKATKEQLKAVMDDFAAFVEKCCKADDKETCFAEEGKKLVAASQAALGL
# T4 sequence (P02768 25-609): as above
# T3 sequence (P02768 25-609): as above
smiles,measurement,setting,value
"Cc1ccc(C(C)C)cc1.[Cl-].[O-]c1cccc2cccnc12.[Ru+2] [Complex 1, [Ru^II(cym)(8-HQ)Cl]]",IC50 values (antiproliferative properties),human cancer cells,low micromolar range
same,% Wf bound,"HSA binding site I; 200 μM complex 1, 0 h",58 ± 4%
same,% Wf bound,"HSA binding site I; 200 μM complex 1, 24 h",59 ± 4%
same,% Wf bound,"HSA binding site I; 200 μM complex 1, 48 h",51 ± 4%
same,% Wf bound,"HSA binding site I; 400 μM complex 1, 0 h",26 ± 9%
same,% Wf bound,"HSA binding site I; 400 μM complex 1, 24 h",23 ± 5%
same,% Wf bound,"HSA binding site I; 400 μM complex 1, 48 h",33 ± 8%
same,% Wf bound,"HSA binding site I; 800 μM complex 1, 0 h",Fully displaced
same,% Wf bound,"HSA binding site I; 800 μM complex 1, 24 h",Fully displaced
same,% Wf bound,"HSA binding site I; 800 μM complex 1, 48 h",Fully displaced
same,Binding to site I on HSA (displacement of Wf),HSA binding site I; at higher molar ratios,binds to both sites I and II on HSA
same,Halido/aqua ligand exchange in aqueous environment (1H NMR),[1],undergo halido/aqua ligand exchange quickly
same,"Binding to Tf, complex peak",Tf [2]; complex (200 μM):Tf 1:1,complex peak was not detectable in the first run
same,Binding to Tf,"Tf [2]; complex (200 μM):Tf 10:1, over 2 h",majority of complex 1 was found attached to either protein
same,Fraction of complex remaining unbound,"Tf [2]; complex (200 μM):Tf 20:1, after 2 h",about a quarter to a third
same,"Binding to HSA, complex peak",HSA; complex (200 μM):HSA 1:1,complex peak was not detectable in the first run
same,Binding to HSA,"HSA; complex (200 μM):HSA 10:1, over 2 h",majority of complex 1 was found attached to either protein
same,Fraction of complex remaining unbound,"HSA; complex (200 μM):HSA 20:1, after 2 h",about a quarter to a third
same,Adducts formed with Tf,Tf [3]; after 24 h,[Tf + 3 Ru(cym)(8-HQ)] was dominant
same,Adducts formed with Tf,Tf [3]; immediately after mixing (0 h),"adducts with one, two, and three Ru(cym)(8-HQ) moieties attached to the protein"
same,Speciation on dilution with water or BGE,[4]; migration relative to EOF marker [Co(acac)3],underwent ligand exchange to form a cationic species
same,Stability in water (peak areas of cationic species constant),[4],at least 24 h
same,% Ds bound,"HSA binding site II; 200 μM complex 1, 0 h",44 ± 6%
same,% Ds bound,"HSA binding site II; 200 μM complex 1, 24 h",50 ± 7%
same,% Ds bound,"HSA binding site II; 200 μM complex 1, 48 h",45 ± 7%
same,% Ds bound,"HSA binding site II; 400 μM complex 1, 0 h",35 ± 7%
same,% Ds bound,"HSA binding site II; 400 μM complex 1, 24 h",19 ± 11%
same,% Ds bound,"HSA binding site II; 400 μM complex 1, 48 h",33 ± 7%
same,% Ds bound,"HSA binding site II; 800 μM complex 1, 0 h",Fully displaced
same,% Ds bound,"HSA binding site II; 800 μM complex 1, 24 h",Fully displaced
same,% Ds bound,"HSA binding site II; 800 μM complex 1, 48 h",Fully displaced
same,Binding to site II on HSA (displacement of Ds),HSA binding site II; at higher molar ratios,binds to both sites I and II on HSA
same,Aqueous solubility,Aqueous solubility,limited aqueous solubility
"C1N2CN3CN1CP(C2)C3.Cc1ccc(C(C)C)cc1.O=S(=O)([O-])C(F)(F)F.[O-]c1cccc2cccnc12.[Ru+2] [Complex 2, [Ru^II(cym)(8-HQ)(PTA)](SO3CF3)]",Halido/aqua ligand exchange in aqueous environment (1H NMR),[1],inert
same,Interaction with Tf,"Tf [2]; complex (200 μM):Tf 1:1, 10:1, 20:1, over 1 d",does not interact with either protein
same,Interaction with HSA,"HSA; complex (200 μM):HSA 1:1, 10:1, 20:1, over 1 d",does not interact with either protein
same,Stability in water (peak areas of cationic species constant),[4],at least 24 h
same,Interaction with αMEM spiked with 5% FBS,[5],no interactions were observed
same,Interaction with human serum,[6],no interactions were observed
"Cc1ccc(C(C)C)cc1.Fc1ccc(NC(=S)c2ccccn2)cc1.[Cl-].[Cl-].[Ru+2] [Complex 3, [Ru^II(cym)(PCA)Cl]Cl]",IC50 values (antiproliferative properties),human cancer cells,low micromolar range
same,Protein target,plectin,specifically target the scaffold protein and cytolinker plectin
same,Decrease in Tf peak area,Tf [2]; complex:Tf 10:1,62%
same,Decrease in Tf peak area,Tf [2]; complex:Tf 20:1,82%
same,Decrease in peak area of complex 3,Tf [2]; complex:Tf 20:1,37%
same,Observation on incubation with HSA,"HSA; complex (200 μM):HSA 20:1 and 50:1, data not analysable",precipitation
same,Stability in water (peak areas of cationic species constant),[4],at least 24 h
same,Interaction with αMEM spiked with 5% FBS,[5],precipitation was observed
same,Interaction with human serum,[6],precipitation was observed
"[Cl-].[Cl-].[Cl-].[Cl-].[Ru+3].c1ccc2[nH][nH+]cc2c1.c1ccc2[nH]ncc2c1.c1ccc2[nH]ncc2c1 [KP1019, Indazolium Trans-[Tetrachlorobis(1H-Indazole)Ruthenate(III)]]",Relative rate of binding to serum proteins,HSA and Tf,bind quicker to Tf than HSA
